Like-named read-outs stand apart in the source and are kept apart here.
Experiments:
WDR5 protein = WDR5 protein (Homo sapiens (Human), UniProt P61964); test: Surface Plasmon Resonance (SPR) assay; type: binding; conditions: for residence time: τ=1/koff, read-out: Residence Time (t, min)
Procedure: Exemplary compounds of the application were dissolved in 100% DMSO at 10 mM, assayed fresh, and then stored at −20° C. for repeat studies and other experiments. Full length WDR5 with an N-terminal His tag and C-terminal AviTag (Avidity Inc.) was expressed in E. coli with coexpression of BirA to biotin label the protein in vivo. Purification was via Ni-NTA. The purified WDR5 protein has a molecular weight of 41976 Da.
SPR studies were performed using a Biacore™ T200 instrument (GE Health Sciences Inc.). Biotinylated WDR5 protein (approximately 3000RU) was stably captured to streptavidin coupled SA chips according to the manufacture's protocol (GE Health Sciences Inc.). The running buffer used was HBS-EP (20 mM Hepes pH 7.4, 150 mM NaCl, 3 mM EDTA, 0.05% P-20) plus 5% DMSO with a flow rate of 40p1/min. For SPR analysis, 5 different concentrations of each exemplary compound of the application were sprayed into 96 or 384 well plates using an HP D300 digital dispenser. […] Curve fitting and KD calculations were performed with the Biacore T200 Evaluation software (GE Health Sciences Inc).

MLL1-WRAD2 complex = MLL1-WRAD2 complex (Homo sapiens (Human), UniProt P61964); test: MLL1-WRAD2 enzyme assay (in vitro methyl transferase assay); type: biochemical
Procedure: Reaction was initiated with 1 μM 3H-SAM and incubated for 1 hour at 30° C. Reaction mixture was transferred to P81 filter-paper and washed with PBS before detection.

[1] = SPR, Table 1, read-out: WDR5 binding affinity (KD)
[2] = SPR, Table 2, read-out: WDR5 binding affinity SPR (KD)
[3] = MLL1-WRAD2 assay, read-out: In vitro MLL1 activity (IC50)
[4] = Table 4, effect of Fluoro-substitution, read-out: KD (SPR)

| SMILES | Kd (WDR5 protein; [1]) [nM] | Kd (WDR5 protein; [2]) [nM] | residence time (WDR5 protein; SPR) [min] | IC50 (MLL1-WRAD2 complex; [3]) [nM] | Kd (WDR5 protein; [4]) [nM] | IC50 (MLL1-WRAD2 complex; Table 4, effect of Fluoro-substitution, read-out: IC50 (MLL1)) [nM] | τ (WDR5 protein; Table 4, effect of Fluoro-substitution) [min] |
| --- | --- | --- | --- | --- | --- | --- | --- |
| CC(C)COc1ccc(F)c(-c2ccc(N3CCN(C)CC3)c(NC(=O)c3c[nH]c(=O)cc3C(F)(F)F)c2)c1 [Example 6, N-(2′-fluoro-5′-isobutoxy-4-(4-methylpiperazin-1-yl)-[1,1′-biphenyl]-3-yl)-6-oxo-4-(trifluoromethyl)-1,6-dihydropyridine-3-carboxamide] | 76 | 76 | 0.19 | 2510 |  |  |  |
| CN1CCN(c2ccc(-c3ccc(OC4CCOCC4)nc3F)cc2NC(=O)c2c[nH]c(=O)cc2C(F)(F)F)CC1 [Example 8, N-(5-(2-fluoro-6-((tetrahydro-2H-pyran-4-yl)oxy)pyridin-3-yl)-2-(4-methylpiperazin-1-yl)phenyl)-6-oxo-4-(trifluoromethyl)-1,6-dihydropyridine-3-carboxamide] | 5 | 5 | 5.85 | 1480 |  |  |  |
| Cc1cc(C(=O)Nc2cc(-c3cc(CN4CCOCC4)ccc3F)ccc2N2CCN(C)CC2)cc(C)c1F [Example 11, 4-fluoro-N-(2′-fluoro-4-(4-methylpiperazin-1-yl)-5′-(morpholinomethyl)-[1,1′-biphenyl]-3-yl)-3,5-dimethylbenzamide] | 6 | 6 | 1.04 | 4430 |  |  |  |
| CN1CCN(c2ccc(-c3ccc(CNC4CCCC4)cc3F)cc2NC(=O)c2c[nH]c(=O)cc2C(F)(F)F)CC1 [Example 33, N-(4′-((cyclopentylamino)methyl)-2′-fluoro-4-(4-methylpiperazin-1-yl)-[1,1′-biphenyl]-3-yl)-6-oxo-4-(trifluoromethyl)-1,6-dihydropyridine-3-carboxamide] | 23 | 23 | 1.37 | 8450 |  |  |  |
| CN1CCN(c2ccc(-c3ccc(CNC4CCCCC4)cc3F)cc2NC(=O)c2c[nH]c(=O)cc2C(F)(F)F)CC1 [Example 34, N-(4′-((cyclohexylamino)methyl)-2′-fluoro-4-(4-methylpiperazin-1-yl)-[1,1′-biphenyl]-3-yl)-6-oxo-4-(trifluoromethyl)-1,6-dihydropyridine-3-carboxamide] | 21 | 21 | 0.26 | 13700 |  |  |  |
| CN1CCN(c2ccc(-c3cc(CNC(C)(C)C)ccc3F)cc2NC(=O)c2c[nH]c(=O)cc2C(F)(F)F)CC1 [Example 35, N-(5′-((tert-butylamino)methyl)-2′-fluoro-4-(4-methylpiperazin-1-yl)-[1,1′-biphenyl]-3-yl)-6-oxo-4-(trifluoromethyl)-1,6-dihydropyridine-3-carboxamide] | 9 | 9 | 4.59 | 2390 |  |  |  |
| CN(C)Cc1ccc(F)c(-c2ccc(N3CCN(C)CC3)c(NC(=O)c3c[nH]c(=O)cc3C(F)(F)F)c2)c1 [Example 40, N-(5′-((dimethylamino)methyl)-2′-fluoro-4-(4-methylpiperazin-1-yl)-[1,1′-biphenyl]-3-yl)-6-oxo-4-(trifluoromethyl)-1,6-dihydropyridine-3-carboxamide] | 9 | 9 | 2.52 | 6290 |  |  |  |
| CN1CCN(c2ccc(-c3cc(CNC4CCC(F)(F)CC4)ccc3F)cc2NC(=O)c2c[nH]c(=O)cc2C(F)(F)F)CC1 [Example 42, N-(5′-(((4,4-difluorocyclohexyl)amino)methyl)-2′-fluoro-4-(4-methylpiperazin-1-yl)-[1,1′-biphenyl]-3-yl)-6-oxo-4-(trifluoromethyl)-1,6-dihydropyridine-3-carboxamide] | 5 | 5 | 4.43 | 2280 |  |  |  |
| CN1CCN(c2ccc(-c3cc(CN(C)C4COC4)ccc3F)cc2NC(=O)c2c[nH]c(=O)cc2C(F)(F)F)CC1 [Example 43, N-(2′-fluoro-5′-((methyl(oxetan-3-yl)amino)methyl)-4-(4-methylpiperazin-1-yl)-[1,1′-biphenyl]-3-yl)-6-oxo-4-(trifluoromethyl)-1,6-dihydropyridine-3-carboxamide] | 7 | 7 | 3.64 | 3250 |  |  |  |
| CN(C)C1CCN(c2ccc(-c3cc(CN4CCOCC4)ccc3F)cc2NC(=O)c2c[nH]c(=O)cc2C(F)(F)F)C1 (centres unmarked) [Example 87, N-(4-(3-(dimethylamino)pyrrolidin-1-yl)-2′-fluoro-5′-(morpholinomethyl)-[1,1′-biphenyl]-3-yl)-6-oxo-4-(trifluoromethyl)-1,6-dihydropyridine-3-carboxamide] |  |  |  | 3890 |  |  |  |
| C[C@@H]1CN(c2ccc(-c3cc(C(N)=O)ccc3F)cc2NC(=O)c2c[nH]c(=O)cc2C(F)(F)F)C[C@H](C)N1C [Example 119, N-(5′-carbamoyl-2′-fluoro-4-((3S,5R)-3,4,5-trimethylpiperazin-1-yl)-[1,1′-biphenyl]-3-yl)-6-oxo-4-(trifluoromethyl)-1,6-dihydropyridine-3-carboxamide] | 3.7 | 4 | 2.8 |  |  |  |  |
| C[C@@H]1CN(c2ccc(-c3cc(C(=O)NC(C)(C)CC(C)(C)C)c(F)cc3F)cc2NC(=O)c2c[nH]c(=O)cc2C(F)(F)F)C[C@H](C)N1C [Example 120, N-(2′,4′-difluoro-5′-((2,4,4-trimethylpentan-2-yl)carbamoyl)-4-((3S,5R)-3,4,5-trimethylpiperazin-1-yl)-[1,1′-biphenyl]-3-yl)-6-oxo-4-(trifluoromethyl)-1,6-dihydropyridine-3-carboxamide] | 6 | 6 | 12.5 |  |  |  |  |
| C[C@@H]1CN(c2ccc(-c3cc(C(N)=O)c(F)cc3F)cc2NC(=O)c2c[nH]c(=O)cc2C(F)(F)F)C[C@H](C)N1C [Example 121, N-(5′-carbamoyl-2′,4′-difluoro-4-((3S,5R)-3,4,5-trimethylpiperazin-1-yl)-[1,1′-biphenyl]-3-yl)-6-oxo-4-(trifluoromethyl)-1,6-dihydropyridine-3-carboxamide] | 9.2 | 9 | 2.3 |  |  |  |  |
| C[C@@H]1CN(c2ccc(-c3ccc(C(=O)NC(C)(C)CC(C)(C)C)c(F)c3F)cc2NC(=O)c2c[nH]c(=O)cc2C(F)(F)F)C[C@H](C)N1C [Example 122, N-(2′,3′-difluoro-4′-((2,4,4-trimethylpentan-2-yl)carbamoyl)-4-((3S,5R)-3,4,5-trimethylpiperazin-1-yl)-[1,1′-biphenyl]-3-yl)-6-oxo-4-(trifluoromethyl)-1,6-dihydropyridine-3-carboxamide] | 7.6 | 8 | 6.7 |  |  |  |  |
| C[C@@H]1CN(c2ccc(-c3ccc(C(N)=O)c(F)c3F)cc2NC(=O)c2c[nH]c(=O)cc2C(F)(F)F)C[C@H](C)N1C [Example 123, N-(4′-carbamoyl-2′,3′-difluoro-4-((3S,5R)-3,4,5-trimethylpiperazin-1-yl)-[1,1′-biphenyl]-3-yl)-6-oxo-4-(trifluoromethyl)-1,6-dihydropyridine-3-carboxamide] | 3.6 | 4 | 4.2 |  |  |  |  |
| CN1CCN(c2ccc(-c3cc(C(=O)NC4CCCCC4)ccc3F)cc2NC(=O)c2c[nH]c(=O)cc2C(F)(F)F)CC1 [drawing 291] |  |  |  |  | 6 |  |  |
| CN1CCN(c2ccc(-c3cccc(CN4CCC(F)CC4)c3)cc2NC(=O)c2c[nH]c(=O)cc2C(F)(F)F)CC1 [reference compound] |  |  |  |  | 30 |  | 0.91 |

Results, then the compound that gave them:

| Kd (WDR5 protein; [1]) [nM] | Kd (WDR5 protein; [2]) [nM] | residence time (WDR5 protein; SPR) [min] | IC50 (MLL1-WRAD2 complex; [3]) [nM] | Kd (WDR5 protein; [4]) [nM] | IC50 (MLL1-WRAD2 complex; Table 4, effect of Fluoro-substitution, read-out: IC50 (MLL1)) [nM] | τ (WDR5 protein; Table 4, effect of Fluoro-substitution) [min] | SMILES |
| --- | --- | --- | --- | --- | --- | --- | --- |
| 15 | 15 | 0.3 | 8980 |  |  |  | CN1CCN(c2ccc(-c3cc(CN4CCOCC4)ccc3F)cc2NC(=O)c2cn(C)c(=O)cc2C(F)(F)F)CC1 [Example 13, N-(2′-fluoro-4-(4-methylpiperazin-1-yl)-5′-(morpholinomethyl)-[1,1′-biphenyl]-3-yl)-1-methyl-6-oxo-4-(trifluoromethyl)-1,6-dihydropyridine-3-carboxamide] |
| 262 | 262 | 0.42 | 26700 |  |  |  | Cc1cc(=O)[nH]cc1C(=O)Nc1cc(-c2cc(CN3CCOCC3)ccc2F)ccc1N1CCN(C)CC1 [Example 29, N-(2′-fluoro-4-(4-methylpiperazin-1-yl)-5′-(morpholinomethyl)-[1,1′-biphenyl]-3-yl)-4-methyl-6-oxo-1,6-dihydropyridine-3-carboxamide] |
| 4 | 4 | 0.12 | > 30000 |  |  |  | Cc1cc(C(=O)Nc2cc(-c3cc(CN4CCOCC4)ccc3F)ccc2N2CCN(C)CC2)ccc1F [Example 36, 4-fluoro-N-(2′-fluoro-4-(4-methylpiperazin-1-yl)-5′-(morpholinomethyl)-[1,1′-biphenyl]-3-yl)-3-methylbenzamide] |
| 55 | 55 | 0.77 | > 30000 |  |  |  | Cc1cc(C(=O)Nc2cc(-c3cc(CN4CCOCC4)ccc3F)ccc2N2CCN(C)CC2)cc(C(F)(F)F)c1F [Example 41, 4-fluoro-N-(2′-fluoro-4-(4-methylpiperazin-1-yl)-5′-(morpholinomethyl)-[1,1′-biphenyl]-3-yl)-3-methyl-5-(trifluoromethyl)benzamide] |
| 69 | 69 | 0.23 | > 30000 |  |  |  | CN1CCN(c2ccc(-c3cc(CN4CCOCC4)ccc3F)cc2NC(=O)c2ccc(O)cc2C(F)(F)F)CC1 [Example 44, N-(2′-fluoro-4-(4-methylpiperazin-1-yl)-5′-(morpholinomethyl)-[1,1′-biphenyl]-3-yl)-4-hydroxy-2-(trifluoromethyl)benzamide] |
|  |  |  |  | 34.5 |  |  | CN1CCN(c2ccc(-c3cc(CN4CCOCC4)ccc3Cl)cc2NC(=O)c2c[nH]c(=O)cc2C(F)(F)F)CC1 [drawing 288, reference compound] |
|  |  |  |  |  | 939 |  | CN1CCN(c2ccc(-c3cc(CN4CCOCC4)ccc3F)cc2NC(=O)c2c[nH]c(=O)cc2C(F)(F)F)CC1 [drawing 289] |
